System: CT2 human embryonic stem cells
Test: Expansion of slicer-passaged pluripotent stem cell aggregates cultured with or without Y27632 ROCK inhibitor
Type: cell-based
Description: In one example, aggregate formation and cell expansion was measured after passage with Accutase™ or with the square grid or hexagon grid slicer. After passaging, CT2 human embryonic stem cells were seeded in 6 well plates in 2 ml mTeSR1 at either 4×10̂5 cells per mL or 1.5×10̂6 cells per mL, with or without 10 uM Y27632 ROCK inhibitor. The plates were maintained on a Boekel Scientific Rocker II 260350 rocker platform in a standard cell culture incubator at 37 degrees C., 5% CO2, with culture conditions of 20 rocks per minute at a 15 degree rock angle. Aggregates formed from the accutased cells after overnight culture. Each day, the spent mTeSR1 was completely removed and replaced with fresh mTeSR1 without Y27632 ROCK inhibitor. On day 4, the aggregates were recovered, dissociated with Accutase™ and enumerated using a Nucleocounter NC200. […]
Aggregates were passed across the slicer in a flow stream consisting of 100 mL to 1 L volumes. […] The cell aggregate concentration used to pass through the slicer was determined to influence the recovery of sliced cell aggregates at high viability. […] It was determined that slicing of cell aggregate concentrations below about 3×10̂6 cells per mL produced higher viability samples with higher recovery than cell concentrations greater than about 3×10̂6 cells per mL. […]

## C[C@@H](N)[C@H]1CC[C@H](C(=O)Nc2ccncc2)CC1 [Y27632 ROCK inhibitor, Y-27632]
10 uM at seeding, 4×10^5 or 1.5×10^6 cells per mL, 6 well plates, rocking, counted day 4, square or hexagon grid slicer
  expansion rates of slicer passaged aggregates cultured with or without Y27632 ROCK inhibitor: similar
Sliced aggregates in mTeSR1, optionally 1 to 10 uM, unlike enzymatically passaged aggregates
  requirement of Y27632 ROCK inhibitor for expansion of sliced pluripotent stem cell aggregates: not required
